Measurements reported in patent US5591714A, “Derivatives of A82846” (priority 1994, dated 1997).
In brackets after ≈: the same amount, converted by molar mass.

Assays:
Streptococcus pyogenes = assay: In vivo activity, experimentally infected mice (ED50); conditions: Streptococcus pyogenes infection; doses administered subcutaneously to mice 1 and 4 hours postinfection
Streptococcus pneumoniae = assay: as above; conditions: Streptococcus pneumoniae infection; doses administered subcutaneously to mice 1 and 4 hours postinfection
Enterococcus faecium X66 = assay: MIC, standard agar-dilution assay; type: cell-based
Method: (§1) The formula I compounds have in vitro and in vivo activity against Gram-positive pathogenic bacteria. The MIC's were determined using a standard agar-dilution assays.
^b Formerly Streptococcus faecium X66

[1] = system: Streptococcus pneumoniae Park 1; type: cell-based
Method: as §1

[2] = system: Staphylococcus aureus S13E; type: cell-based
Method: as §1

[3] = system: Enterococcus faecalis 2041; assay: MIC, standard agar-dilution assay; type: cell-based
Method: as §1
^c Formerly Streptococcus faecalis 2041

Staphylococcus aureus = assay: In vivo activity, experimentally infected mice (ED50); conditions: Staphylococcus aureus infection; doses administered subcutaneously to mice 1 and 4 hours postinfection
[4] = system: Streptococcus pyogenes C203; assay: MIC, standard agar-dilution assay; type: cell-based
Method: as §1

[5] = system: Klebsiella pneumoniae X68; assay: MIC, standard agar-dilution assay; type: cell-based
Method: as §1

[6] = system: Staphylococcus epidermidis 222; assay: MIC, standard agar-dilution assay; type: cell-based
Method: as §1

Escherichia coli N10 = assay: MIC, standard agar-dilution assay; type: cell-based
Method: as §1

[7] = system: Haemophilus influenzae C.L.; assay: MIC, standard agar-dilution assay; type: cell-based
Method: as §1

[8] = system: Staphylococcus aureus X400; assay: MIC, standard agar-dilution assay; type: cell-based
Method: as §1

[9] = system: Haemophilus influenzae 76; assay: MIC, standard agar-dilution assay; type: cell-based
Method: as §1

Escherichia coli EC14 = assay: MIC, standard agar-dilution assay; type: cell-based
Method: as §1

Escherichia coli TEM = assay: MIC, standard agar-dilution assay; type: cell-based
Method: as §1

[10] = system: Klebsiella pneumoniae X26; assay: MIC, standard agar-dilution assay; type: cell-based
Method: as §1

[11] = system: Klebsiella pneumoniae KAE; assay: MIC, standard agar-dilution assay; type: cell-based
Method: as §1

[12] = system: Staphylococcus epidermidis EPI270; assay: MIC, standard agar-dilution assay; type: cell-based
Method: as §1

[13] = system: Staphylococcus aureus NRRL X1.1; assay: MIC, standard agar-dilution assay; type: cell-based
Method: as §1

[14] = system: Staphylococcus aureus V41; assay: MIC, standard agar-dilution assay; type: cell-based
Method: as §1

SMILES | ED50 (Streptococcus pyogenes) | ED50 (Streptococcus pneumoniae) | MIC (Enterococcus faecium X66) | MIC [1] | MIC [2] | MIC [3] | ED50 (Staphylococcus aureus) | MIC [4] | MIC [5] | MIC [6] | MIC (Escherichia coli N10) | MIC [7] | MIC [8] | MIC [9] | MIC (Escherichia coli EC14) | MIC (Escherichia coli TEM) | MIC [10] | MIC [11] | MIC [12] | MIC [13] | also measured
CCCCCN(C)[C@H](CC(C)C)C(=O)N[C@H]1C(=O)N[C@@H](CC(N)=O)C(=O)N[C@H]2C(=O)N[C@H]3C(=O)N[C@H](C(=O)N[C@H](C(=O)O)c4cc(O)cc(O)c4-c4cc3ccc4O)[C@H](O[C@H]3C[C@](C)(N)[C@@H](O)[C@H](C)O3)c3ccc(cc3)Oc3cc2cc(c3O[C@@H]2O[C@H](CO)[C@@H](O)[C@H](O)[C@H]2O[C@H]2C[C@](C)(N)[C@@H](O)[C@H](C)O2)Oc2ccc(cc2Cl)[C@H]1O [Compound 6] | 0.67 mg/kg/2 | 0.94 mg/kg/2 | 1 µg/mL (≈ 0.614 µM) | .125 µg/mL (≈ 0.0768 µM) | .25 µg/mL (≈ 0.154 µM) | 1 µg/mL (≈ 0.614 µM) | 0.88 mg/kg/2 | .125 µg/mL (≈ 0.0768 µM) | > 128 µg/mL | .5 µg/mL (≈ 0.307 µM) | > 128 µg/mL | > 128 µg/mL | .25 µg/mL (≈ 0.154 µM) | > 128 µg/mL | > 128 µg/mL | > 128 µg/mL | > 128 µg/mL | > 128 µg/mL | .5 µg/mL (≈ 0.307 µM) | .25 µg/mL (≈ 0.154 µM) | MIC [14]: .25 µg/mL (≈ 0.154 µM)
CCCCCN[C@@]1(C)C[C@H](O[C@H]2[C@H](Oc3c4cc5cc3Oc3ccc(cc3Cl)[C@@H](O)[C@@H](NC(=O)[C@@H](CC(C)C)N(C)CCCCC)C(=O)N[C@@H](CC(N)=O)C(=O)N[C@H]5C(=O)N[C@H]3C(=O)N[C@H](C(=O)N[C@H](C(=O)O)c5cc(O)cc(O)c5-c5cc3ccc5O)[C@H](O[C@H]3C[C@](C)(N)[C@@H](O)[C@H](C)O3)c3ccc(cc3)O4)O[C@H](CO)[C@@H](O)[C@@H]2O)O[C@@H](C)[C@@H]1O [Compound 7] | 0.83 mg/kg/2 | 0.98 mg/kg/2 | 2 µg/mL (≈ 1.18 µM) | .5 µg/mL (≈ 0.294 µM) | 1 µg/mL (≈ 0.589 µM) | 2 µg/mL (≈ 1.18 µM) | 4.09 mg/kg/2 | .5 µg/mL (≈ 0.294 µM) | > 128 µg/mL | 1 µg/mL (≈ 0.589 µM) | > 128 µg/mL | > 128 µg/mL | 1 µg/mL (≈ 0.589 µM) | > 128 µg/mL | > 128 µg/mL | > 128 µg/mL | > 128 µg/mL | > 128 µg/mL | 2 µg/mL (≈ 1.18 µM) | 1 µg/mL (≈ 0.589 µM) | MIC [14]: 1 µg/mL (≈ 0.589 µM)
CN[C@H](CC(C)C)C(=O)N[C@H]1C(=O)N[C@@H](CC(N)=O)C(=O)N[C@H]2C(=O)N[C@H]3C(=O)N[C@H](C(=O)N[C@H](C(=O)O)c4cc(O)cc(O)c4-c4cc3ccc4O)[C@H](O[C@H]3C[C@](C)(N)[C@@H](O)[C@H](C)O3)c3ccc(cc3)Oc3cc2cc(c3O[C@@H]2O[C@H](CO)[C@@H](O)[C@H](O)[C@H]2O[C@H]2C[C@](C)(NCc3ccccc3)[C@@H](O)[C@H](C)O2)Oc2ccc(cc2Cl)[C@H]1O [Compound 10] | 0.2 mg/kg/2 | 0.4 mg/kg/2 | .25 µg/mL (≈ 0.152 µM) | .125 µg/mL (≈ 0.0758 µM) | .125 µg/mL (≈ 0.0758 µM) | .5 µg/mL (≈ 0.303 µM) | 0.46 mg/kg/2 | .25 µg/mL (≈ 0.152 µM) | > 128 µg/mL | .25 µg/mL (≈ 0.152 µM) | > 128 µg/mL | > 128 µg/mL | .5 µg/mL (≈ 0.303 µM) | > 128 µg/mL | > 128 µg/mL | > 128 µg/mL | > 128 µg/mL | > 128 µg/mL | .25 µg/mL (≈ 0.152 µM) | .25 µg/mL (≈ 0.152 µM) | MIC [14]: .25 µg/mL (≈ 0.152 µM)
CCN(CC)c1ccc(CN[C@@]2(C)C[C@H](O[C@H]3[C@H](Oc4c5cc6cc4Oc4ccc(cc4Cl)[C@@H](O)[C@@H](NC(=O)[C@@H](CC(C)C)NC)C(=O)N[C@@H](CC(N)=O)C(=O)N[C@H]6C(=O)N[C@H]4C(=O)N[C@H](C(=O)N[C@H](C(=O)O)c6cc(O)cc(O)c6-c6cc4ccc6O)[C@H](O[C@H]4C[C@](C)(N)[C@@H](O)[C@H](C)O4)c4ccc(cc4)O5)O[C@H](CO)[C@@H](O)[C@@H]3O)O[C@@H](C)[C@@H]2O)cc1 [Compound 17] | 0.23 mg/kg/2 | 0.33 mg/kg/2 | 1 µg/mL (≈ 0.582 µM) | .25 µg/mL (≈ 0.145 µM) | .5 µg/mL (≈ 0.291 µM) | 1 µg/mL (≈ 0.582 µM) | 0.78 mg/kg/2 | .25 µg/mL (≈ 0.145 µM) | > 128 µg/mL | .5 µg/mL (≈ 0.291 µM) | > 128 µg/mL | > 128 µg/mL | .5 µg/mL (≈ 0.291 µM) | > 128 µg/mL | > 128 µg/mL | > 128 µg/mL | > 128 µg/mL | > 128 µg/mL | 1 µg/mL (≈ 0.582 µM) | .5 µg/mL (≈ 0.291 µM) | MIC [14]: .5 µg/mL (≈ 0.291 µM)
CN[C@H](CC(C)C)C(=O)N[C@H]1C(=O)N[C@@H](CC(N)=O)C(=O)N[C@H]2C(=O)N[C@H]3C(=O)N[C@H](C(=O)N[C@H](C(=O)O)c4cc(O)cc(O)c4-c4cc3ccc4O)[C@H](O[C@H]3C[C@](C)(N)[C@@H](O)[C@H](C)O3)c3ccc(cc3)Oc3cc2cc(c3O[C@@H]2O[C@H](CO)[C@@H](O)[C@H](O)[C@H]2O[C@H]2C[C@](C)(NCc3ccc(Br)cc3)[C@@H](O)[C@H](C)O2)Oc2ccc(cc2Cl)[C@H]1O [Compound 18] | 0.15 mg/kg/2 | 0.25 mg/kg/2 | 1 µg/mL (≈ 0.579 µM) | .25 µg/mL (≈ 0.145 µM) | 1 µg/mL (≈ 0.579 µM) | 1 µg/mL (≈ 0.579 µM) | 1.74 mg/kg/2 | .125 µg/mL (≈ 0.0724 µM) | > 128 µg/mL | .5 µg/mL (≈ 0.29 µM) | > 128 µg/mL | > 128 µg/mL | 1 µg/mL (≈ 0.579 µM) | > 128 µg/mL | > 128 µg/mL | > 128 µg/mL | > 128 µg/mL | > 128 µg/mL | 1 µg/mL (≈ 0.579 µM) | 1 µg/mL (≈ 0.579 µM) | MIC [14]: 1 µg/mL (≈ 0.579 µM)
CN[C@H](CC(C)C)C(=O)N[C@H]1C(=O)N[C@@H](CC(N)=O)C(=O)N[C@H]2C(=O)N[C@H]3C(=O)N[C@H](C(=O)N[C@H](C(=O)O)c4cc(O)cc(O)c4-c4cc3ccc4O)[C@H](O[C@H]3C[C@](C)(N)[C@@H](O)[C@H](C)O3)c3ccc(cc3)Oc3cc2cc(c3O[C@@H]2O[C@H](CO)[C@@H](O)[C@H](O)[C@H]2O[C@H]2C[C@](C)(NCCc3ccccc3)[C@@H](O)[C@H](C)O2)Oc2ccc(cc2Cl)[C@H]1O [Compound 24] | 0.09 mg/kg/2 | 0.25 mg/kg/2 | .5 µg/mL (≈ 0.301 µM) | .25 µg/mL (≈ 0.15 µM) | 1 µg/mL (≈ 0.602 µM) | .5 µg/mL (≈ 0.301 µM) | 0.72 mg/kg/2 | .25 µg/mL (≈ 0.15 µM) | > 128 µg/mL | .5 µg/mL (≈ 0.301 µM) | > 128 µg/mL | > 128 µg/mL | 1 µg/mL (≈ 0.602 µM) | > 128 µg/mL | > 128 µg/mL | > 128 µg/mL | > 128 µg/mL | > 128 µg/mL | .5 µg/mL (≈ 0.301 µM) | .5 µg/mL (≈ 0.301 µM) | MIC [14]: .5 µg/mL (≈ 0.301 µM)
CCCCCCC(=O)N[C@@]1(C)C[C@H](O[C@H]2[C@H](Oc3c4cc5cc3Oc3ccc(cc3Cl)[C@@H](O)[C@@H](NC(=O)[C@@H](CC(C)C)NC)C(=O)N[C@@H](CC(N)=O)C(=O)N[C@H]5C(=O)N[C@H]3C(=O)N[C@H](C(=O)N[C@H](C(=O)O)c5cc(O)cc(O)c5-c5cc3ccc5O)[C@H](O[C@H]3C[C@](C)(N)[C@@H](O)[C@H](C)O3)c3ccc(cc3)O4)O[C@H](CO)[C@@H](O)[C@@H]2O)O[C@@H](C)[C@@H]1O [Compound 27] | 0.5 mg/kg/2 | 0.71 mg/kg/2 | 2 µg/mL (≈ 1.2 µM) | .25 µg/mL (≈ 0.15 µM) | 2 µg/mL (≈ 1.2 µM) | 2 µg/mL (≈ 1.2 µM) | > 1.0 mg/kg/2 | .5 µg/mL (≈ 0.299 µM) | > 128 µg/mL | 2 µg/mL (≈ 1.2 µM) | > 128 µg/mL | > 128 µg/mL | 1 µg/mL (≈ 0.599 µM) | > 128 µg/mL | > 128 µg/mL | > 128 µg/mL | > 128 µg/mL | > 128 µg/mL | 2 µg/mL (≈ 1.2 µM) | 1 µg/mL (≈ 0.599 µM) | MIC [14]: 1 µg/mL (≈ 0.599 µM)
